Data on four compounds can be found in patent publication US20230278972A1, “SUBSTITUTED HALOALKYL SULFONANILIDE HERBICIDES” (FMC Corporation, priority 2020, published 2023).

Holding throughout (type): in vivo
One experiment concerns soybean (Glycine max). Description: Test A1 preemergence, soybean. The method, boiled down: (§1)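 Pre: seeds in loam/sand blend, directed soil spray. Post: potted plants, same soil, 2–10 cm, 1–2 leaf stage. Chemicals in non-phytotoxic solvent + surfactant for both.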
In experiment [1] the test system is wheat (Triticum aestivum). The experiment can be described thus: Test A1 preemergence, wheat. The essentials:
as §1

The subject of the next experiment is corn (Zea mays). Description: Test A1 postemergence, corn. Particulars: 0 to 100 scale (0 no effect, 100 complete control); for Corn plant response rating: 31 g ai/ha, postemergence; for Plant response rating, Corn: Postemergence, 125 g ai/ha, 10 days. The method, boiled down: as §1
The subject of experiment [2] is wheat (Triticum aestivum). Description: Test A1 postemergence, wheat. The following applies: 0 to 100 scale (0 no effect, 100 complete control); for Wheat plant response rating: 31 g ai/ha, postemergence; for Plant response rating, Wheat: Postemergence, 125 g ai/ha, 10 days. The essentials: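 Both timings started from seed in a loam-sand blend. Preemergence pots got a directed soil application immediately; postemergence pots were sprayed when seedlings had one or two leaves and stood 2–10 cm. Each compound was prepared in a non-phytotoxic solvent plus surfactant.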

Where [3] appears, read: 31 g ai/ha, 0 to 100 scale (0 no effect, 100 complete control).
[4] abbreviates: 125 g ai/ha, 0 to 100 scale, 0 no effect, 100 complete control.
The mark [5] stands for this setting: 125 g ai/ha, 0 to 100 scale (0 no effect, 100 complete control).

SMILES strings stand for the structures.

With `Cc1cc(C)c(N2CCC3(CCC(C)CC3)C2=O)cc1NS(=O)(=O)C(F)(F)F` (centres unmarked) [Compound 402], the “Plant response rating, Soybean” value in the experiment with soybean (Glycine max) (setting [3]) came out at 10; in the experiment on soybean (Glycine max) (setting [4]) it was 80. For the same compound, the figures for the “Plant response rating, Wheat” value in experiment [1] (setting [3]), in experiment [1] (setting [4]) and in experiment [2] were 30, 50 and 0, respectively. Also, the “Corn plant response rating” value in the experiment with corn (Zea mays) was 0. In addition, in the experiment on corn (Zea mays), the “Plant response rating, Corn” value is recorded as 0. Moreover, the “Wheat plant response rating” value in experiment [2] is listed as 0.
Turning to `Cc1cc(C)c(N2Cc3cccc(C)c3C2=O)cc1NS(=O)(=O)Cl` [Compound 408], the “Plant response rating, Soybean” value in the experiment on soybean (Glycine max) (setting [5]) is reported as 50. The “Plant response rating, Wheat” value in experiment [1] (setting [5]) was 100. Besides, in the experiment with corn (Zea mays), the “Corn plant response rating” value came to 80 and the “Plant response rating, Corn” value came to 80. In experiment [2], the “Wheat plant response rating” value is reported as 60 and the “Plant response rating, Wheat” value is recorded as 70.
As for `CCOc1cccc2c1C(=O)N(c1cc(N(COC(=O)C(C)(C)C)S(=O)(=O)Cl)c(C)cc1C)C2` [Compound 414], in the experiment on soybean (Glycine max) (setting [5]), the “Plant response rating, Soybean” value stood at 0. The “Plant response rating, Wheat” value in experiment [1] (setting [5]) worked out at 0. In addition, in the experiment with corn (Zea mays), the “Corn plant response rating” value was determined as 0 and the “Plant response rating, Corn” value worked out at 0. Further, in experiment [2], the “Wheat plant response rating” value came out at 0 and the “Plant response rating, Wheat” value worked out at 0.
Take `Cc1cc(C)c(N2Cc3cccc(Br)c3C2=O)cc1NS(=O)(=O)Cl` [Compound 415]: the “Plant response rating, Soybean” value in the experiment with soybean (Glycine max) (setting [5]) is recorded as 0. In experiment [1] (setting [5]), the “Plant response rating, Wheat” value turned out to be 50. Moreover, in the experiment with corn (Zea mays), the “Corn plant response rating” value was 0 and the “Plant response rating, Corn” value was determined as 50. Besides, in experiment [2], the “Wheat plant response rating” value amounted to 20 and the “Plant response rating, Wheat” value is reported as 70.
